EC50 and Max % data for 31 compounds are collected here from patent US9988400B2 (Genentech, Inc., priority 2013, dated 2018).

The test concerns the target T1, HEK cells stably transfected with tetracycline inducible hNR1 and hNR2A (Homo sapiens, UniProt Q05586+Q12879).
T1 construct: expressed in transfected cells; host or cells: HEK cells, stably transfected, tetracycline/doxycycline inducible
Description: Assay 1: Cell-Based Assay, cytosolic calcium response to positive allosteric modulators (with 30 μM glycine and 300 nM L-glutamate, EC30). Conditions: Table 2; for EC50: cytosolic calcium response, with 30 μM glycine and 300 nM L-glutamate (EC30), — = no plateau was reached; for Max %: responses scaled relative to 100 μM L-glutamate maximal response (100%) and 0 μM L-glutamate (0%). In a few lines: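 Cells induced 24 h with 7.5 μg mL^−1 doxycycline plus 500 μM (+)-ketamine, loaded 60 min at 37 °C with calcium dye in Mg-free HBSS (1.8 mM Ca, probenecid, 10 μM (+)-ketamine, pH 7.15). Peak RFU over 5 min after compound addition, scaled to 100 μM L-glutamate (100%) and 0 μM (0%); four-parameter Hill fit for EC50, max % if no plateau.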

T1 sequence (Q12879 23-1464, other chains not shown): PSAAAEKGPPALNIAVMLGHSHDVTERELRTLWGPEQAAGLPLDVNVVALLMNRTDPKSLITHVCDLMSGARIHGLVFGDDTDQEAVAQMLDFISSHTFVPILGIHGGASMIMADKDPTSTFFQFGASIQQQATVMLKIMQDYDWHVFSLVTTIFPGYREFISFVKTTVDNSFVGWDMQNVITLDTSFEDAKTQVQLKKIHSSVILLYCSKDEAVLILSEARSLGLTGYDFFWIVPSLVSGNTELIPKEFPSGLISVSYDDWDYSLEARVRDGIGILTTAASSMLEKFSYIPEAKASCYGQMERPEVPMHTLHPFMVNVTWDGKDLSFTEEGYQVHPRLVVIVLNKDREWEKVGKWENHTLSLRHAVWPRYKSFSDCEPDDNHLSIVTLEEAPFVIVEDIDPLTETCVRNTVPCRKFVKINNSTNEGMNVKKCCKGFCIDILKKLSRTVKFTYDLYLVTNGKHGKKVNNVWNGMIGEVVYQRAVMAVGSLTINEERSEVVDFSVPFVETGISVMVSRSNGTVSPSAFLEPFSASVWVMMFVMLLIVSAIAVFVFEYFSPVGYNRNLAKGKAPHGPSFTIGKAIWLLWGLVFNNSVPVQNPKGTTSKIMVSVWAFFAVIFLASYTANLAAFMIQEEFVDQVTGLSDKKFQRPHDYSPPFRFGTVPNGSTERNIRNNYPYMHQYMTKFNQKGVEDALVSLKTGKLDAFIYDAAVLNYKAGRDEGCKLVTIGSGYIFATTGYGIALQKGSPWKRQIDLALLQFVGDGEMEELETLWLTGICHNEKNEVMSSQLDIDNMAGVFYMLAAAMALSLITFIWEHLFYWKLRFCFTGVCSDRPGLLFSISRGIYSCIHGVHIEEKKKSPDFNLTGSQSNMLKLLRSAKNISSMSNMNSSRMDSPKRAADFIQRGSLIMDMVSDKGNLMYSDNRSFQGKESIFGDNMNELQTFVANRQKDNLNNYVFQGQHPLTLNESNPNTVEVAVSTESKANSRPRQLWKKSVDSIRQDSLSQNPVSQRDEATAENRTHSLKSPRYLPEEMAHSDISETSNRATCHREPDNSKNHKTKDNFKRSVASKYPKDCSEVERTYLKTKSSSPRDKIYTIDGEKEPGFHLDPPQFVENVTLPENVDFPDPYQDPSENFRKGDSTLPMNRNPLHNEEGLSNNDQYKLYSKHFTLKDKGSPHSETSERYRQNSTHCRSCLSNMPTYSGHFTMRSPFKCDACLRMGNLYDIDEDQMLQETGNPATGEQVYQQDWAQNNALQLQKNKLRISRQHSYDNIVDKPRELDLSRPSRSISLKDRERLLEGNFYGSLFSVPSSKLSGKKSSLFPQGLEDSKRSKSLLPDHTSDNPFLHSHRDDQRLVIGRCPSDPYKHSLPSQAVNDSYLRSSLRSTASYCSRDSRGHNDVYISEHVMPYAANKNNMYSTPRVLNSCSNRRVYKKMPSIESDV

The term EC50 denotes the midpoint of the concentration-response curve. Turning to `CCN(Cc1cc(=O)n2c(-c3ccc(N)nc3)c(C)sc2n1)c1ccc(F)cc1` [Example 5.51, 3-(6-aminopyridin-3-yl)-7-((ethyl(4-fluorophenyl)amino)methyl)-2-methyl-5H-thiazolo[3,2-a]pyrimidin-3-one], the EC50 worked out at 40.7 µM and the Max % stood at 80.3%.
For `CC#Cc1c(C)sc2nc(CN(CC)c3ccc(F)cc3)cc(=O)n12` [Example 5.52], the EC50 worked out at 1.6 µM and the Max % worked out at 58%.
Regarding `C=Cc1c(C)sc2nc(CN(CC)c3ccc(F)cc3)cc(=O)n12` [Example 5.53, 7-((ethyl(4-fluorophenyl)amino)methyl)-2-methyl-3-vinyl-5H-thiazolo[3,2-a]pyrimidin-5-one], the EC50 is 1.3 µM and the Max % was 153%.
With `CCN(Cc1cc(=O)n2c(Br)c(C3CC3)sc2n1)c1ccc(F)cc1` [Example 5.54, 3-bromo-2-cyclopropyl-7-[(N-ethyl-4-fluoro-anilino)methyl]thiazolo[3,2-a]pyrimidin-5-one], the EC50 came out at 51.5 µM and the Max % amounted to 129%.
Regarding `CCN(Cc1cc(=O)n2c(-c3cc(F)cc(F)c3)c(C)sc2n1)c1ccc(F)cc1` [Example 5.55, 3-(3,5-difluorophenyl)-7-[(N-ethyl-4-fluoro-anilino)methyl]-2-methyl-thiazolo[3,2-a]pyrimidin-5-one], the EC50 was found to be 4.7 µM and the Max % turned out to be 111%.
Consider `CCN(Cc1cc(=O)n2c(-c3ccn(C)n3)c(C)sc2n1)c1ccc(F)cc1` [Example 5.56, 7-[(N-ethyl-4-fluoro-anilino)methyl]-2-methyl-3-(1-methylpyrazol-3-yl)thiazolo[3,2-a]pyrimidin-5-one], for which the Max % came out at 110%.
On to `CCN(Cc1cc(=O)n2c(-c3ccnc(N)c3)c(C)sc2n1)c1ccc(F)cc1` [Example 5.57, 3-(2-amino-4-pyridyl)-7-[(N-ethyl-4-fluoro-anilino)methyl]-2-methyl-thiazolo[3,2-a]pyrimidin-5-one], for which the EC50 came out at 6.4 µM and the Max % is 120%.
As for `CCN(Cc1cc(=O)n2c(-c3cncc(OC)c3)c(C)sc2n1)c1ccc(F)cc1` [Example 5.58, 7-[(N-ethyl-4-fluoro-anilino)methyl]-3-(5-methoxy-3-pyridyl)-2-methyl-thiazolo[3,2-a]pyrimidin-5-one], the EC50 was 5.1 µM and the Max % was determined as 120%.
With `CCN(Cc1cc(=O)n2c(N3CCOCC3)c(C)sc2n1)c1ccc(F)cc1` [Example 6.1, 7-((ethyl(4-fluorophenyl)amino)methyl)-2-methyl-3-morpholino-5H-thiazolo[3,2-a]pyrimidin-5-one], the EC50 amounted to 10 µM and the Max % amounted to 123%.
Take `CCN(Cc1cc(=O)n2c(N(C)C)c(C)sc2n1)c1ccc(F)cc1` [Example 6.2, 3-(dimethylamino)-7-((ethyl(4-fluorophenyl)amino)methyl)-2-methyl-5H-thiazolo[3,2-a]pyrimidin-5-one]: the EC50 amounted to 5 µM and the Max % is given as 121%.
Consider `CCN(Cc1cc(=O)n2c(N3CCCC3)c(C)sc2n1)c1ccc(F)cc1` [Example 6.3, 7-((ethyl(4-fluorophenyl)amino)methyl)-2-methyl-3-(pyrrolidin-1-yl)-5H-thiazolo[3,2-a]pyrimidin-5-one], for which the EC50 was 10.1 µM and the Max % was found to be 91.9%.
Turning to `CCN(Cc1cc(=O)n2c(C#N)c(C)sc2n1)c1ccc(F)c(F)c1` [Example 7.1, 7-(((3,4-difluorophenyl)(ethyl)amino)methyl)-2-methyl-5-oxo-5H-thiazolo[3,2-a]pyrimidine-3-carbonitrile], the EC50 is 0.853 µM and the Max % is 184%.
The like results for `CCN(Cc1cc(=O)n2c(C#N)c(C)sc2n1)c1cccc(F)c1` [Example 7.2, 7-((ethyl(3-fluorophenyl)amino)methyl)-2-methyl-5-oxo-5H-thiazolo[3,2-a]pyrimidine-3-carbonitrile] were, in that order, 0.612 µM and 134%.
For `CCN(Cc1cc(=O)n2c(C#N)c(C)sc2n1)c1ccc(F)cc1` [Example 7.3, 7-[(N-ethyl-4-fluoro-anilino)methyl]-2-methyl-5-oxo-thiazolo[3,2-a]pyrimidine-3-carbonitrile], the EC50 was 0.376 µM and the Max % was 156%.
The like results for `CCN(Cc1cc(=O)n2c(C#N)csc2n1)c1ccc(F)cc1` [Example 7.4, 7-[(N-ethyl-4-fluoro-anilino)methyl]-5-oxo-thiazolo[3,2-a]pyrimidine-3-carbonitrile] were, in that order, 5.7 µM and 166%.
Consider `Cc1sc2nc(CN3c4ccc(F)cc4CC3C)cc(=O)n2c1C#N` (centres unmarked) [Example 7.5, 7-((5-fluoro-2-methylindolin-1-yl)methyl)-2-methyl-5-oxo-5H-thiazolo[3,2-a]pyrimidine-3-carbonitrile], for which the EC50 is 2.1 µM and the Max % is 162%.
As to `CCN(Cc1cc(=O)n2c(C#N)c(C)sc2n1)c1cccc(C#N)c1` [Example 7.6, 7-(((3-cyanophenyl)(ethyl)amino)methyl)-2-methyl-5-oxo-5H-thiazolo[3,2-a]pyrimidine-3-carbonitrile], the EC50 worked out at 3.7 µM and the Max % was 151%.
For the compound `CCN(Cc1cc(=O)n2c(C#N)c(C)sc2n1)c1ccccn1` [Example 7.7, 7-((ethyl(pyridin-2-yl)amino)methyl)-2-methyl-5-oxo-5H-thiazolo[3,2-a]pyrimidine-3-carbonitrile], the EC50 was found to be 21 µM and the Max % was found to be 148%.
For the compound `Cc1sc2nc(CN3c4ccccc4CC3C)cc(=O)n2c1C#N` (centres unmarked) [Example 7.8, 2-methyl-7-((2-methylindolin-1-yl)methyl)-5-oxo-5H-thiazolo[3,2-a]pyrimidine-3-carbonitrile], the EC50 was 2.5 µM and the Max % is 126%.
With `CCN(Cc1cc(=O)n2c(C#N)c(C)sc2n1)c1cc(F)cc(F)c1` [Example 7.9, 7-(((3,5-difluorophenyl)(ethyl)amino)methyl)-2-methyl-5-oxo-5H-thiazolo[3,2-a]pyrimidine-3-carbonitrile], the EC50 was 1.3 µM and the Max % worked out at 121%.
In the same order, the values of `CCN(Cc1cc(=O)n2c3c(sc2n1)CCC3)c1ccc(F)cc1` [Example 8.1, 6-[(N-ethyl-4-fluoro-anilino)methyl]-2,3-dihydro-1H-cyclopenta[3,4]thiazolo[1,4-a]pyrimidin-8-one] are 5.2 µM and 146%.
Consider `CCN(Cc1cc(=O)n2c3c(sc2n1)CCCC3)c1ccc(F)cc1` [Example 8.2, 2-[(N-ethyl-4-fluoro-anilino)methyl]-6,7,8,9-tetrahydropyrimido[2,1-b][1,3]benzothiazol-4-one], for which the EC50 came to 7.2 µM and the Max % turned out to be 122%.
On to `CCN(Cc1cc(=O)n2c3c(sc2n1)CCC3CO)c1ccc(F)cc1` (centres unmarked) [Example 8.5, 6-[(N-ethyl-4-fluoro-anilino)methyl]-1-(hydroxymethyl)-2,3-dihydro-1H-cyclopenta[3,4]thiazolo[1,4-a]pyrimidin-8-one], for which the EC50 was found to be 16.9 µM and the Max % is given as 114%.
Regarding `CCN(Cc1cc(=O)n2c3c(sc2n1)CCC31CCCC1)c1ccc(F)cc1` [Example 8.6, 6-[(N-ethyl-4-fluoro-anilino)methyl]spiro[2,3-dihydrocyclopenta[3,4]thiazolo[1,4-a]pyrimidine-1,1′-cyclopentane]-8-one], the Max % worked out at 60.5%.
Still for that read-out and setting: next, `CCN(Cc1cc(=O)n2c3c(sc2n1)CCC3=O)c1ccc(F)cc1` [Example 8.7, 6-[(N-ethyl-4-fluoro-anilino)methyl]-2,3-dihydrocyclopenta[3,4]thiazolo[1,4-a]pyrimidine-1,8-dione]: 81.4%.
As for `CCN(Cc1cc(=O)n2c3c(sc2n1)CCC3(C)C)c1ccc(F)cc1` [Example 8.8, 6-[(N-ethyl-4-fluoro-anilino)methyl]-1,1-dimethyl-2,3-dihydrocyclopenta[3,4]thiazolo[1,4-a]pyrimidin-8-one], the EC50 amounted to 8.7 µM and the Max % is recorded as 108%.
As to `CCN(Cc1cc(=O)n2c3c(sc2n1)CCOC3)c1ccc(F)cc1` [Example 8.9, 2-[(N-ethyl-4-fluoro-anilino)methyl]-8,9-dihydro-6H-pyrano[3,4]thiazolo[1,4-a]pyrimidin-4-one], the EC50 worked out at 11.1 µM and the Max % is reported as 124%.
Turning to `CCN(Cc1cc(=O)n2c3c(sc2n1)CCN(C)C3)c1ccc(F)cc1` [Example 8.10, 2-[(N-ethyl-4-fluoro-anilino)methyl]-7-methyl-8,9-dihydro-6H-pyrido[3,4]thiazolo[1,4-a]pyrimidin-4-one], the EC50 worked out at 12.5 µM and the Max % was 127%.
As for `CCN(Cc1cc(=O)n2c3c(sc2n1)CCC3C(N)=O)c1ccc(F)cc1` (centres unmarked) [Example 8.11, 6-[(N-ethyl-4-fluoro-anilino)methyl]-8-oxo-2,3-dihydro-1H-cyclopenta[3,4]thiazolo[1,4-a]pyrimidine-1-carboxamide], the EC50 is 2.7 µM and the Max % is 154%.
Regarding `CCN(Cc1cc(=O)n2c3c(sc2n1)CCC3C#N)c1ccc(F)cc1` (centres unmarked) [Example 8.12, 6-[(N-ethyl-4-fluoro-anilino)methyl]-8-oxo-2,3-dihydro-1H-cyclopenta[3,4]thiazolo[1,4-a]pyrimidine-1-carbonitrile], the EC50 is 0.385 µM and the Max % turned out to be 161%.
The like results for `CCN(Cc1cc(=O)n2c3c(sc2n1)CCC3CC#N)c1ccc(F)cc1` (centres unmarked) [Example 8.13, 2-[6-[(N-ethyl-4-fluoro-anilino)methyl]-8-oxo-2,3-dihydro-1H-cyclopenta[3,4]thiazolo[1,4-a]pyrimidin-1-yl]acetonitrile] were, in that order, 2.2 µM and 162%.
